Here are results for one molecule from US20090036417A1, “COCHLEATES WITHOUT METAL CATIONS AS BRIDGING AGENTS” (priority 2002, published 2009).

Series [1] is described as follows: Loading capacity of cochleates for molecules as bridging agents (UV absorption / HPLC). To be noted: with the lipid amount of column Lipids (mg): 5 mg for TAPS, 38.11 mg for Tobramycine. The format is physicochemical. As for the experimental part: Loading capacities of the new cochelates and nano-cochleates for TAS and tobramycin were determined. For TAS, known amounts of cochleates or nano-cochleates were first dissolved with chloroform, then added with water (pH=2), followed by strong shaking. The water phase was separated hereafter, and the same procedure was repeated two more times. The water phases collected three times were combined. The concentration of the extract was determined by UV absorption at 380 nm. […] The loading amount was determined based on the decreased concentration in the supernatant after cochleate formation. For mobile phase, 2.0 g of tris (hydroxymethyl) aminomethan was first dissolved with 800 ml of water, followed by addition of 20 ml of 1N H2SO4 and acetanitrile to a total volume of 2000 ml. For detectability, a solution of 2,4-dinitrofluourobene (10 mg/ml in alcohol) was prepared within 5 days prior to use and refrigerated. A water solution of tris (hydroxymethyl) aminomethane (15 mg/ml) was also prepared as a stock solution. Within 4 hours of analysis, this stock solution, 40 ml, was diluted with dimethyl sulfoxide (DMSO) to 200 ml. […] For the supernatant (the sample to be measured), 1 ml of 5.5 mg/ml of tobramycin solution was added into a liposome suspension with a lipid-to-drug ratio of 1:5. […]

In series [2] the test system is E. Coli cell line, DH5α. Nature of the series: Antibiotic activity of tobramycin in solution, cochleates and nano-cochleates (colony counting). Conditions: 0.5 μg/ml, 37° C., 24 hrs. The series is classed as cell-based. As for the experimental part: FIG. 9. Antibiotic activity of tobramycin formulated in solution, cochleates and nano-cochleates. The drug of various doses were added to E. Coli prior to incubation at 37° C., followed by counting of the colonies. Tobramycin was selected as a model drug to examine the capability of cochelates and nano-cochleates to deliver hydrophilic drugs across cell membranes because the antibiotic function of tobramycin relies on its binding to ribosomes inside of cells. In other words, tobramycin's antibiotic activity reflects internalization of the drug into the cells. For this purpose, tobramycin-loaded cochleates and nano-cochleates prepared as in Example 2 were incubated with E. Coli at various doses. As a control, a tobramycin solution was also incubated with E. Coli under identical conditions. Experimentally, one drop of E. Coli cell line, DH5α, was added to 2 ml LB Broth solution and incubated at 37° C. for 24 hrs to prepare 1:10 DH5α culture solution. Then, 5 ul of the DH5α culture solution was diluted to 2 ml and tobramycin was added in the form of cochleates and nano-cochleates at the final concentrations of 0, 0.5, 1.0, 2.5, and 5.0 μg/ml, respectively. The tobramycin-added cell cultures were incubated at 37° C., with shaking at 200 rpm, for 24 hrs. […]

As for `NC[C@H]1O[C@H](O[C@H]2[C@H](O)[C@@H](O[C@H]3O[C@H](CO)[C@@H](O)[C@H](N)[C@H]3O)[C@H](N)C[C@@H]2N)[C@H](N)C[C@@H]1O` [Tobramycine, tobramycin], in series [1], the “Drug (mg) loaded in cochleates” value amounted to 5.5 mg. Besides, in series [2], the “antibiotic activity of drug solution relative to large cochleates” value is listed as 75 times and the “antibiotic activity of drug solution relative to nano-cochleates” value is recorded as “slightly higher”.
